Consider 5 compounds from ChEMBL document CHEMBL4673352, “Discovery of AZD4573, a Potent and Selective Inhibitor of CDK9 That Enables Short Duration of Target Engagement for the Treatment of Hematological Malignancies” (J Med Chem, 2020).

The term IC50 denotes the midpoint of a concentration-inhibition curve. As usually defined, the clearance is the volume of plasma or blood freed of the substance per unit of time. A low value points to a low capacity for elimination. One may read the thermodynamic solubility as the concentration in solution at equilibrium with solid. Usually half-life stands for how long it takes for the measured level to halve. A low value points to fast loss. One may read the logD as lipophilicity at a set pH, counting ionised and neutral species. As usually defined, the solubility is the dissolved amount per volume that the medium holds. As a reminder, the EC50 is the concentration at which the effect is half-maximal.

Each structure is given as a SMILES string. In brackets after ≈: the same amount, converted by molar mass.

A short description of data set [1]: Intrinsic clearance in human liver microsome. The settings on record: liver microsomes, read-out: CLH. The format is ADME, microsomes. On the technique in general: Liver microsomes are vesicles of endoplasmic reticulum, rich in cytochrome P450 enzymes.
Data set [2] in a line: Intrinsic clearance in human cryopreserved hepatocytes assessed per million cells […]. The format is ADME, cell-based, Hepatocyte. The settings on record: read-out: CLH. Background: In equilibrium dialysis only unbound substance equilibrates across the membrane.
Data set [3] can be described thus: Drug level in human liver microsomes treated with (1S,3R)-3-Acetamido-N-(5-chloro-4-(4,5,6,7-tetrahydropyrazolo-[1,5-a]pyridin-3-yl)pyridin-2-yl)cyclohexanecarboxamide at 10 uM measured after 1 hr in presence of NADPH by LC-UV-MS analysis. The format is ADME, Microsome.
Data set [4] can be described thus: Drug level in human hepatocytes treated with (1S,3R)-3-Acetamido-N-(5-chloro-4-(4,5,6,7-tetrahydropyrazolo-[1,5-a]pyridin-3-yl)pyridin-2-yl)cyclohexanecarboxamide. The format is ADME, cell-based, Hepatocyte.
The target in data set [5] is T1, Cyclin-dependent kinase 9 (Homo sapiens, UniProt P50750). Briefly: Inhibition of CDK9 in human MCF7 cells assessed as reduction in RNA Polymerase 2 CTD phosphorylation at Ser2 residues measured after 6 hrs by immunofluorescence assay. It is filed as cell-based.
T1 sequence (P50750 whole entry): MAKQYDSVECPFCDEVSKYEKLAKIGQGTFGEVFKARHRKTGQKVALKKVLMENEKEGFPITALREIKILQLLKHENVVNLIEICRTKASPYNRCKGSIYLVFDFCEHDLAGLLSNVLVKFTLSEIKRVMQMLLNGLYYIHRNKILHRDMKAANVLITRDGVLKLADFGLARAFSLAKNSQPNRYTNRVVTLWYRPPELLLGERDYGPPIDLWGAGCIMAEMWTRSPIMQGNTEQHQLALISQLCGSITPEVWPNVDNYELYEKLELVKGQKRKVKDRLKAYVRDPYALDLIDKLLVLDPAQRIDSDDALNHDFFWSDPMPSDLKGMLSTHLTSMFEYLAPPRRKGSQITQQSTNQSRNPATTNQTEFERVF
Data set [6] is described as follows: Intrinsic clearance in rat cryopreserved hepatocytes assessed per million cells […]. It is filed as ADME, cell-based, Hepatocyte. The settings on record: cryopreserved hepatocytes, read-out: CLH.
Data set [7] is described as follows: Clearance in Beagle dog plasma at 5.2 umol/kg, iv administered as 0.25 hrs infusion. The format is ADME, organism-based, Canis lupus familiaris. The settings on record: dose 5.2 µmol/kg.
A short description of data set [8]: Volume of distribution at steady state in mouse at 5.2 umol/kg, iv formulated as solution. It is filed as ADME, organism-based. The settings on record: in vivo, dose 5.2 µmol/kg, read-out: Vdss.
Data set [9] in a line: Intrinsic clearance in mouse cryopreserved hepatocytes assessed per million cells […]. It is filed as ADME, cell-based, Hepatocyte. The settings on record: read-out: CLH.
A short description of data set [10]: Solubility of compound in pH 4 0.1 M acetate buffer using crystalline form of sample. The format is physicochemical.
Data set [11] can be described thus: Clearance in mouse plasma at 5.2 umol/kg, iv formulated as solution. It is filed as ADME, organism-based. The settings on record: dose 5.2 µmol/kg.
Data set [12] is described as follows: Clearance in Han Wistar rat plasma at […], iv formulated as solution. It is filed as ADME, organism-based. The settings on record: dose 1.3 µmol/kg.
Data set [13] can be described thus: Half-life in mouse at 5.2 umol/kg, iv formulated as solution. The settings on record: in vivo, dose 5.2 µmol/kg. It is filed as ADME, organism-based.
Data set [14] in a line: Intrinsic clearance in dog cryopreserved hepatocytes assessed per million cells […]. The settings on record: read-out: CLH. It is filed as ADME, cell-based, Canis lupus familiaris, Hepatocyte.
A short description of data set [15]: Half-life in Han Wistar rat at […], iv formulated as solution. It is filed as ADME, organism-based. The settings on record: in vivo, dose 1.3 µmol/kg.
Data set [16] in a line: Lipophilicity, log D of compound in buffer/octanol at pH 7.4 by shake flask method. The format is physicochemical.
A short description of data set [17]: Volume of distribution at steady state in Han Wistar rat at […], iv formulated as solution. It is filed as ADME, organism-based. The settings on record: in vivo, dose 1.3 µmol/kg, read-out: Vdss.
Data set [18] in a line: Solubility of compound in pH 7.4 PBS buffer using crystalline form of sample. The format is physicochemical.
A short description of data set [19]: Half-life in Beagle dog at 5.2 umol/kg, iv administered as 0.25 hrs infusion. It is filed as ADME, organism-based, Canis lupus familiaris. The settings on record: in vivo, dose 5.2 µmol/kg.
Data set [20] can be described thus: Volume of distribution at steady state in Beagle dog at 5.2 umol/kg, iv administered as 0.25 hrs infusion. The settings on record: in vivo, dose 5.2 µmol/kg, read-out: Vdss. It is filed as ADME, organism-based, Canis lupus familiaris.
Data set [21] can be described thus: Solubility of compound in phosphate buffer at pH 7.4 using dried form of sample. The format is physicochemical. The settings on record: phosphate buffer, read-out: solubility.
Data set [22] deals with CDK9/cyclin T1 (Homo sapiens, UniProt P50750). The experiment in a line: Inhibition of recombinant full length human N-terminal GST-fused CDK9 (1 to 372 residues)/His-tagged CyclinT1 (1 to 726 residues) expressed in baculovirus infected insect cells using FITC-X-GSRTPMY-NH2 as substrate preincubated for 10 mins followed by MgCl2 addition and measured after 90 mins in presence of 5 mM ATP by mobility shift assay.
Sequence of CDK9/cyclin T1 (O60563 whole entry, the tested form may be a part): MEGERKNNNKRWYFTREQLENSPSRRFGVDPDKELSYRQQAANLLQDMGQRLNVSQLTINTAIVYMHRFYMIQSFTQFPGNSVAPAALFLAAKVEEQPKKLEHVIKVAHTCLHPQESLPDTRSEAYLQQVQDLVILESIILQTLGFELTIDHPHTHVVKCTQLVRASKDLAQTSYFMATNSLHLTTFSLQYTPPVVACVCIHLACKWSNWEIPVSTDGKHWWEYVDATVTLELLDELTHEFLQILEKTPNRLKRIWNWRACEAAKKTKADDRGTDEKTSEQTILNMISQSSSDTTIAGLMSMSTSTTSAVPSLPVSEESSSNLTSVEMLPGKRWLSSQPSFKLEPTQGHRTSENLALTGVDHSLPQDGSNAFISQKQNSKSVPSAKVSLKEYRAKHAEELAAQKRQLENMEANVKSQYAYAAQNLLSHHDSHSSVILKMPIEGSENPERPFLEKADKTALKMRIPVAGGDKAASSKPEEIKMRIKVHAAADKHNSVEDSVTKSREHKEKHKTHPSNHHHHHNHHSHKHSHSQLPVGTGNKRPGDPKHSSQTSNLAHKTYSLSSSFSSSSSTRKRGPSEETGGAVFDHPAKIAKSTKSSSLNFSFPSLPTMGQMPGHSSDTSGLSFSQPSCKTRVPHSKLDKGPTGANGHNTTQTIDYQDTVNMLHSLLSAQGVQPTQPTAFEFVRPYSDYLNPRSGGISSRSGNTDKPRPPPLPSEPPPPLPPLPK
Sequence of CDK9/cyclin T1 (P50750 whole entry, the tested form may be a part): as the sequence (P50750 whole entry) above

Data set [23] deals with T1, Cyclin-dependent kinase 9. The experiment in a line: Inhibition of CDK9 in human MV4-11 cells assessed as induction of caspase-3/7 activation measured after 6 hrs followed by Caspase-glo reagent based assay. The format is cell-based.

With `CC(=O)N[C@@H]1CCC[C@H](C(=O)Nc2cc(-c3cnn4c3CCCC4O)c(Cl)cn2)C1` (stereo partly drawn), in data set [1], the microsomal CLint amounted to 18 µL/min/mg. The hepatocyte CLint in [2] was 33 µL/min/1e6 cells. In addition, the Drug uptake result in [3] and in data set [4] was “Active” throughout. In [5], the IC50 stood at 720 nM.

Regarding `CC(=O)N[C@@H]1CCC[C@H](C(=O)Nc2cc(-c3cn[nH]c3CCCCO)c(Cl)cn2)C1`, the microsomal CLint in [1] came out at 15 µL/min/mg. Further, the hepatocyte CLint in [2] was found to be 2.9 µL/min/1e6 cells. The Drug uptake entry in data set [3] and in data set [4] was “Active” throughout. Further, the IC50 in data set [5] is > 2000 nM.

For `CC(=O)N[C@@H]1CCC[C@H](C(=O)Nc2cc(-c3cn[nH]c3CCCC(=O)O)c(Cl)cn2)C1`, the Drug uptake result in data set [3] and in data set [4] was “Active” each time.

In the case of `COc1cc(F)ccc1-c1ccnc(NC(=O)[C@H]2CCC[C@@H](NC(C)=O)C2)c1`, the hepatocyte CLint in [6] is 58 µL/min/1e6 cells; in [9], 52 µL/min/1e6 cells; in data set [2], 1.4 µL/min/1e6 cells; in data set [14], 5.9 µL/min/1e6 cells. Moreover, the values for the clearance in data set [7], in data set [11] and in data set [12] were 7.5 mL/min/kg, 40 mL/min/kg and 77 mL/min/kg, respectively. In addition, in data set [1], the microsomal CLint worked out at 12 µL/min/mg. Also, the Vd in data set [8] is 1.1 L/kg; in [17], 1.3 L/kg; in data set [20] it was 0.62 L/kg. Further, the thermodynamic solubility in data set [10] amounted to 24 µM (≈ 9.25 µg/mL); in data set [18] it was 7.5 µM (≈ 2.89 µg/mL). Besides, the half-life is 15.6 min in [13], 13.2 min in [15] and 60 min in data set [19]. The logD in data set [16] came out at 3. Further, in [21], the solubility was 33 µM (≈ 12.7 µg/mL).

Consider `CC(=O)N[C@@H]1CCC[C@H](C(=O)Nc2cc(-c3cnn(C)c3C)c(Cl)cn2)C1`, for which the hepatocyte CLint was 10 µL/min/1e6 cells in [6] and < 1 µL/min/1e6 cells in data set [2]. In addition, the figures for the IC50 in [22] and in data set [5] were 270 nM and 440 nM, respectively. Further, the microsomal CLint in data set [1] is 3.3 µL/min/mg. Further, the logD in data set [16] came to 2.6. Also, in data set [21], the solubility is 960 µM (≈ 374 µg/mL). Moreover, the concentration giving a half-maximal response (EC50) in data set [23] is 560 nM.
